# Columns and labels:
# PI3K-gamma = PI3K-gamma (Homo sapiens, UniProt P48736); assay: PI3K-gamma fluorescence polarization assay; details: read-out: IC50 PI3Kγ
# PI3K-alpha = PI3K-alpha (Homo sapiens, UniProt P42336); assay: PI3K-alpha fluorescence polarization assay; details: read-out: IC50 PI3Kα
# Sequence of PI3K-alpha (P42336 whole entry, species assumed): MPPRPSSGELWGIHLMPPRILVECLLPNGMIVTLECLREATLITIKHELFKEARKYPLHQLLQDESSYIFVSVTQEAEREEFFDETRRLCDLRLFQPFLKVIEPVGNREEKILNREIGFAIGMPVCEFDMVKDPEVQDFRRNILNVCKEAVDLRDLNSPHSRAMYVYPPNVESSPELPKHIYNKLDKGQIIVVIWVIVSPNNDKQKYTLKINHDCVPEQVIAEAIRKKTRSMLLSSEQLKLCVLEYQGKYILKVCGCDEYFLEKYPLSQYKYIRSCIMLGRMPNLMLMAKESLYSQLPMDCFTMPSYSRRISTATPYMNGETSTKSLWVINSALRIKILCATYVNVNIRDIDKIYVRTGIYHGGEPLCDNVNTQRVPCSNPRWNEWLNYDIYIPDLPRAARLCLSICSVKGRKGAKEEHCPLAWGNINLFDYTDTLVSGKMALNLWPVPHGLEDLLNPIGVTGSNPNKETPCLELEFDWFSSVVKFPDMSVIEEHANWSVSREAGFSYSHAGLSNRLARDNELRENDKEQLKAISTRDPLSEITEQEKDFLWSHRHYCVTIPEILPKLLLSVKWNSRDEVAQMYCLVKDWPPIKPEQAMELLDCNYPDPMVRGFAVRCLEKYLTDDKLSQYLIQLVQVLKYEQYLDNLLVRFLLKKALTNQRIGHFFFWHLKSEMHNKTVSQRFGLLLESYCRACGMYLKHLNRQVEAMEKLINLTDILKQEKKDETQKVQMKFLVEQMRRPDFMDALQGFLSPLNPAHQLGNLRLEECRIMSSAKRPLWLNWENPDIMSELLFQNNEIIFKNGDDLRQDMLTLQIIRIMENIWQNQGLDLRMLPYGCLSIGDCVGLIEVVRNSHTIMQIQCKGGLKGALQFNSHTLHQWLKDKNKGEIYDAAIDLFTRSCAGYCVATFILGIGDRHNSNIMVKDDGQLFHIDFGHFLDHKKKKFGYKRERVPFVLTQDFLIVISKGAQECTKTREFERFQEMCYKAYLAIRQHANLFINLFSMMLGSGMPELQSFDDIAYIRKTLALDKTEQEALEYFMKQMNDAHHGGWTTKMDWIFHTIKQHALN
# Sequence of PI3K-alpha (P27986 whole entry partner, species assumed): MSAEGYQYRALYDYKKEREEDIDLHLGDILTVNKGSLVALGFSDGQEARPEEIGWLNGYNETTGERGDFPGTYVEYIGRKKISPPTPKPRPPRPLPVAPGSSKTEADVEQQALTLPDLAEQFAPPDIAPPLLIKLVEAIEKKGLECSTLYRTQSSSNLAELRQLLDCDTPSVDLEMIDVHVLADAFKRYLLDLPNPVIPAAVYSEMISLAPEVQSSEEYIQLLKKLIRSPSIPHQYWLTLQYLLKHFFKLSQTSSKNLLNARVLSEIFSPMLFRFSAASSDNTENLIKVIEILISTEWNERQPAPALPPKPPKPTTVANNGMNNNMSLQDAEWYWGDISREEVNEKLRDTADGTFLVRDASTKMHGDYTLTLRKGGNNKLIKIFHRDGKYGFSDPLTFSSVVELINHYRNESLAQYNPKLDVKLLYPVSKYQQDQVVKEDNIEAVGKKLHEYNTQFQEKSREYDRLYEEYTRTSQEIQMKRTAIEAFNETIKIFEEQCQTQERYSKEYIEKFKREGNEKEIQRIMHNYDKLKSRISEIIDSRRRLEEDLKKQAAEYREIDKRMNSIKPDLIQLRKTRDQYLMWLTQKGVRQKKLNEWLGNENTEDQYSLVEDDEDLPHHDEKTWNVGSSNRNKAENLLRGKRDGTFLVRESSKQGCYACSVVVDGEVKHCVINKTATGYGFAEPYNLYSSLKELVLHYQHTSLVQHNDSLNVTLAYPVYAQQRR
# Sequence of PI3K-gamma (P48736 whole entry, species assumed): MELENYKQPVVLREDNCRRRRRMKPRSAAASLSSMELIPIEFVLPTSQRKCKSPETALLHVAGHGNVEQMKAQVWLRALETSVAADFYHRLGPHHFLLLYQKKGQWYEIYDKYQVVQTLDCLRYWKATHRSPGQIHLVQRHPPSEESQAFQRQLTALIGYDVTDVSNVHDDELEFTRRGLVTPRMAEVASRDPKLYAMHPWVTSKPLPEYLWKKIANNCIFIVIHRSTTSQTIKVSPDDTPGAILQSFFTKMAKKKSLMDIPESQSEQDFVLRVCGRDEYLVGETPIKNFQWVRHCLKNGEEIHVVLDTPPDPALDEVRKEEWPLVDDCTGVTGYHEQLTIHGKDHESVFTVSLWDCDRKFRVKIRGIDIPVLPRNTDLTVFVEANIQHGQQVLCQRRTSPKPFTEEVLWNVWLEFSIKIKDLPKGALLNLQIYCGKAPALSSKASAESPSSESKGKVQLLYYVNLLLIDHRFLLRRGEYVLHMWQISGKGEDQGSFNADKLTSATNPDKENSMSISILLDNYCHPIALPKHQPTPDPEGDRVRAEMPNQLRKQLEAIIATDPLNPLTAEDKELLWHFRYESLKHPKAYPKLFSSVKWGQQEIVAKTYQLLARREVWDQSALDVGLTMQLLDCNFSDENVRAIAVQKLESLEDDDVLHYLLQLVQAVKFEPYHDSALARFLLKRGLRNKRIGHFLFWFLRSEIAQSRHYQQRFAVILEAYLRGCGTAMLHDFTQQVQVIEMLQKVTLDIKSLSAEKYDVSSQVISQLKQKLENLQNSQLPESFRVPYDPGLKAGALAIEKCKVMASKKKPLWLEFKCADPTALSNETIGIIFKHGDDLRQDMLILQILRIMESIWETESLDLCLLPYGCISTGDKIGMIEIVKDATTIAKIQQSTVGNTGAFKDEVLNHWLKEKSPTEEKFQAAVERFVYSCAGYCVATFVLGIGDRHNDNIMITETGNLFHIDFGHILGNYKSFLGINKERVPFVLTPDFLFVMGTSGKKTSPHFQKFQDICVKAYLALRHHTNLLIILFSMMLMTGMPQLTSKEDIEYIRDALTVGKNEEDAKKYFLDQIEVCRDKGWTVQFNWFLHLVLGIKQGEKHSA
Compound,IC50 (PI3K-gamma) [nM],IC50 (PI3K-alpha) [nM]
"1-[4-(4,6-dimorpholin-4-yl-1,3,5-triazin-2-yl)phenyl]-3-[3-(1-hydroxyethyl)phenyl]urea [Example 88]",74,8
"COc1ccc(NC(=O)Nc2ccc(-c3nc(N4CCOCC4)nc(N4CCOCC4)n3)cc2)c(OC)c1 [Example 7, 1-(2,4-dimethoxyphenyl)-3-[4-(4,6-dimorpholin-4-yl-1,3,5-triazin-2-yl)phenyl]-urea]",> 100000,
"Cc1ccc(NC(=O)Nc2ccc(-c3nc(NC4CN(C(=O)OC(C)(C)C)C4)nc(N4CCOCC4)n3)cc2)cc1 [Example 16, tert-butyl 3-{[4-(4-{[(4-methylphenyl)carbamoyl]amino}phenyl)-6-morpholin-4-yl-1,3,5-triazin-2-yl]amino}azetidine-1-carboxylate]",> 100000,
"O=C(Nc1ccc(-c2nc(N3CCOCC3)nc(N3CCOCC3)n2)cc1)Nc1ccc(C(O)(C(F)(F)F)C(F)(F)F)cc1 [Example 86, 1-[4-(4,6-dimorpholin-4-yl-1,3,5-triazin-2-yl)phenyl]-3-{4-[2,2,2-trifluoro-1-hydroxy-1-(trifluoromethyl)ethyl]phenyl}urea]",444,122
"CN1CCN(c2ccc(NC(=O)Nc3ccc(-c4nc(-c5ccc(NC(=O)NC6CC6)cc5)nc(N5CC6CCC(C5)O6)n4)cc3)cc2)CC1 [Example 146, 1-cyclopropyl-3-(4-{4-[4-({[4-(4-methylpiperazin-1-yl)phenyl]carbamoyl}amino)phenyl]-6-(8-oxa-3-azabicyclo[3.2.1]oct-3-yl)-1,3,5-triazin-2-yl}phenyl)urea]",> 100000,
"CCN(CC)CCOC(=O)c1ccc(NC(=O)Nc2ccc(-c3nc(N4CCOCC4)nc(N4C5CCC4COC5)n3)cc2)cc1 [Example 675, 2-(diethylamino)ethyl 4-[({4-[4-morpholin-4-yl-6-(3-oxa-8-azabicyclo[3.2.1]oct-8-yl)-1,3,5-triazin-2-yl]phenyl}carbamoyl)amino]benzoate]",136,21
"CN1CCN(C(=O)c2ccc(NC(=O)Nc3ccc(-c4nc(C5CCOCC5)nc(N5CCOCC5)n4)cc3)cc2)CC1 [Example 830, 1-{4-[(4-methylpiperazin-1-yl)carbonyl]phenyl}-3-{4-[4-morpholin-4-yl-6-(tetrahydro-2H-pyran-4-yl)-1,3,5-triazin-2-yl]phenyl}urea]",,2.12
"CN(C)[C@@H]1CCN(C(=O)c2ccc(NC(=O)Nc3ccc(-c4nc(N5CCOCC5)nc(N5CCOCC5)n4)cc3)cc2)C1 [Example 831, 1-(4-{[(3R)-3-(dimethylamino)pyrrolidin-1-yl]carbonyl}phenyl)-3-[4-(4,6-dimorpholin-4-yl-1,3,5-triazin-2-yl)phenyl]urea]",,0.95
"CC(C)N1CCN(C(=O)c2ccc(NC(=O)Nc3ccc(-c4nc(C5CCOCC5)nc(N5CCOCC5)n4)cc3)cc2)CC1 [Example 833, 1-(4-{[4-(1-methylethyl)piperazin-1-yl]carbonyl}phenyl)-3-{4-[4-morpholin-4-yl-6-(tetrahydro-2H-pyran-4-yl)-1,3,5-triazin-2-yl]phenyl}urea]",8.25,2.58
"CN(C)CCN(C)C(=O)c1ccc(NC(=O)Nc2ccc(-c3nc(C4CCOCC4)nc(N4CCOCC4)n3)cc2)cc1 [Example 834, N-[2-(dimethylamino)ethyl]-N-methyl-4-[({4-[4-morpholin-4-yl-6-(tetrahydro-2H-pyran-4-yl)-1,3,5-triazin-2-yl]phenyl}carbamoyl)amino]benzamide]",10,0.75
"O=C(Nc1ccncc1)Nc1ccc(-c2nc(OC3CNC3)nc(N3CCOCC3)n2)cc1 [Example 835, 1-{4-[4-(azetidin-3-yloxy)-6-morpholin-4-yl-1,3,5-triazin-2-yl]phenyl}-3-pyridin-4-ylurea]",18.5,4.15
"CC(C)NC(=O)N1CC(Oc2nc(-c3ccc(NC(=O)Nc4ccncc4)cc3)nc(N3CCOCC3)n2)C1 [Example 836, N-(1-methylethyl)-3-[(4-morpholin-4-yl-6-{4-[(pyridin-4-ylcarbamoyl)amino]phenyl}-1,3,5-triazin-2-yl)oxy]azetidine-1-carboxamide]",17.5,5
"CC(=O)NC1CCN(C(=O)c2ccc(NC(=O)Nc3ccc(-c4nc(N5CCOC[C@@H]5C)nc(N5CCOC[C@@H]5C)n4)cc3)cc2)CC1 [Example 837, N-{1-[(4-{[(4-{4,6-bis[(3S)-3-methylmorpholin-4-yl]-1,3,5-triazin-2-yl}phenyl)carbamoyl]amino}phenyl)carbonyl]piperidin-4-yl}acetamide]",75,11.9
"CC(C)N1CCCN(C(=O)c2ccc(NC(=O)Nc3ccc(-c4nc(N5CCOC[C@@H]5C)nc(N5CCOC[C@@H]5C)n4)cc3)cc2)CC1 [Example 838, 1-(4-{4,6-bis[(3S)-3-methylmorpholin-4-yl]-1,3,5-triazin-2-yl}phenyl)-3-(4-{[4-(1-methylethyl)-1,4-diazepan-1-yl]carbonyl}phenyl)urea]",24.5,4.95
"C[C@H]1COCCN1c1nc(-c2ccc(NC(=O)Nc3ccc(C(=O)N4C5CCC4COC5)cc3)cc2)nc(N2CCOC[C@@H]2C)n1 [Example 839, 1-(4-{4,6-bis[(3S)-3-methylmorpholin-4-yl]-1,3,5-triazin-2-yl}phenyl)-3-[4-(3-oxa-8-azabicyclo[3.2.1]oct-8-ylcarbonyl)phenyl]urea]",29,6.65
"C[C@H]1COCCN1c1nc(-c2ccc(NC(=O)Nc3ccc(C(=O)N4CCC(C#N)CC4)cc3)cc2)nc(N2CCOC[C@@H]2C)n1 [Example 840, 1-(4-{4,6-bis[(3S)-3-methylmorpholin-4-yl]-1,3,5-triazin-2-yl}phenyl)-3-{4-[(4-cyanopiperidin-1-yl)carbonyl]phenyl}urea]",15,5.15
"C[C@H]1COCCN1c1nc(-c2ccc(NC(=O)Nc3ccc(C(=O)N4CC[C@H](N(C)C)C4)cc3)cc2)nc(N2CCOC[C@@H]2C)n1 [Example 841, 1-(4-{4,6-bis[(3S)-3-methylmorpholin-4-yl]-1,3,5-triazin-2-yl}phenyl)-3-(4-{[(3S)-3-(dimethylamino)pyrrolidin-1-yl]carbonyl}phenyl)urea]",108,
"C[C@H]1COCCN1c1nc(-c2ccc(NC(=O)Nc3ccc(C(=O)N4CC[C@@H](N(C)C)C4)cc3)cc2)nc(N2CCOC[C@@H]2C)n1 [Example 842, 1-(4-{4,6-bis[(3S)-3-methylmorpholin-4-yl]-1,3,5-triazin-2-yl}phenyl)-3-(4-{[(3R)-3-(dimethylamino)pyrrolidin-1-yl]carbonyl}phenyl)urea]",54.5,3.55
"CC(C)N1CCCN(c2nc(-c3ccc(NC(=O)Nc4ccc(C(=O)N5CC[C@H](N(C)C)C5)cc4)cc3)nc(N3CCOCC3)n2)CC1 [Example 843, 1-(4-{[(3S)-3-(dimethylamino)pyrrolidin-1-yl]carbonyl}phenyl)-3-(4-{4-(morpholin-4-yl)-6-[4-(propan-2-yl)-1,4-diazepan-1-yl]-1,3,5-triazin-2-yl}phenyl)urea]",291,28.5
"CC(C)N1CCCN(c2nc(-c3ccc(NC(=O)Nc4ccc(C(=O)N5CC[C@@H](N(C)C)C5)cc4)cc3)nc(N3CCOCC3)n2)CC1 [Example 844, 1-(4-{[(3R)-3-(dimethylamino)pyrrolidin-1-yl]carbonyl}phenyl)-3-(4-{4-(morpholin-4-yl)-6-[4-(propan-2-yl)-1,4-diazepan-1-yl]-1,3,5-triazin-2-yl}phenyl)urea]",238,21

# Source: US8748421B2, “Triazine compounds as P13 kinase and MTOR inhibitors” (Wyeth LLC, priority 2009, dated 2014)
